Assay results published in patent publication US9751858B2, “3-heteroaroylamino-propionic acid derivatives and their use as pharmaceuticals” (SANOFI, priority 2011, dated 2017).

Molecular target: T1, Recombinant human cathepsin A (Homo sapiens, UniProt P10619)
T1 construct: Recombinant human cathepsin A (residues 29-480, with a C-terminal 10-His tag); 10-His (C); purchased R&D Systems 1049-SE
T1 sequence (P10619 29-326 limits assumed): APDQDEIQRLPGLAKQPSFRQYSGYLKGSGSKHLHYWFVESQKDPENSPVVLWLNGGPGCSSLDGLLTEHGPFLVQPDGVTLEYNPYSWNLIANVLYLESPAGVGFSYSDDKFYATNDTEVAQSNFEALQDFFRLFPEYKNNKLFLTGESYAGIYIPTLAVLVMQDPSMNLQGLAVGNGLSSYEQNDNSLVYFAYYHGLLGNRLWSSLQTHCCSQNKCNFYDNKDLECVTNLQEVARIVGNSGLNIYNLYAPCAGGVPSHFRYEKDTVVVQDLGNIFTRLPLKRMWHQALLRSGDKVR
T1 sequence (P10619 327-480 limits assumed): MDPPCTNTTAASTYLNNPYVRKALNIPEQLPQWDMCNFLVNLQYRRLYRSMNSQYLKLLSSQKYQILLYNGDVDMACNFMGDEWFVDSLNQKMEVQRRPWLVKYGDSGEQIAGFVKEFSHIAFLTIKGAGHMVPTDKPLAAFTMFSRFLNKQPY
Assay: Cathepsin A inhibitory activity
Format: biochemical
Details: activated recombinant human cathepsin A 833 ng/ml, Bodipy FL-labeled bradykinin 2 μM, pH 5.5, 15 min room temperature
Protocol: a) Cathepsin a Inhibitory Activity
Briefly, cathepsin A was incubated at 10 μg/ml with cathepsin L at 1 μg/ml in activation buffer (25 mM 2-(morpholin-4-yl)-ethanesulfonic acid (MES), pH 6.0, containing 5 mM dithiothreitol (DTT)) for 15 min at 37° C.
The activated cathepsin A was diluted in assay buffer (25 mM MES, pH 5.5, containing 5 mM DTT) and mixed with the test compound (dissolved in assay buffer containing (v/v) 3% DMSO) or, in the control experiments, with the vehicle in a multiple assay plate. After incubation for 15 min at room temperature, as substrate then bradykinin carrying an N-terminal ®Bodipy FL (4,4-difluoro-5,7-dimethyl-4-bora-3a,4a-diaza-s-indacene-3-propionyl) label (JPT Peptide Technologies GmbH; dissolved in assay buffer) was added to the mixture. […] After incubation for 15 min at room temperature the reaction was stopped by the addition of stop buffer (130 mM 2-(4-(2-hydroxy-ethyl)-piperazin-1-yl)-ethanesulfonic acid, pH 7.4, containing (v/v) 0.013%® Triton X-100, 0.13% Coating Reagent 3 (Caliper Life Sciences), 6.5% DMSO and 20 μM ebelactone B (Sigma, # E0886)).
Uncleaved substrate and product were then separated by a microfluidic capillary electrophoresis on a LabChip® 3000 Drug Discovery System (12-Sipper-Chip; Caliper Life Sciences) and quantified by determination of the respective peak areas. Substrate turnover was calculated by dividing product peak area by the sum of substrate and product peak areas, and the enzyme activity and the inhibitory effect of the test compound thus quantified.

| Structure (SMILES) | IC50 |
| --- | --- |
| Cc1ccccc1[C@H](CC(=O)O)NC(=O)c1nc(-c2ccccc2)oc1C [Example 5, (S)-3-[(5-Methyl-2-phenyl-oxazole-4-carbonyl)-amino]-3-o-tolyl-propionic acid] | 251 nM |
| CCCC1CCCCN1C(=O)c1cc(C(=O)N[C@@H](CC(=O)O)c2ccccc2C)nn1CC (stereo partly drawn) [Example 114, (S)-3-{[1-Ethyl-5-(2-propyl-piperidine-1-carbonyl)-1H-pyrazole-3-carbonyl]-amino}-3-o-tolyl-propionic acid] | 810 nM |
| CC(C)c1oc(-c2ccccc2)nc1C(=O)N[C@@H](CC(=O)O)c1ccccc1F [Example 47, (S)-3-(2-Fluoro-phenyl)-3-[(5-isopropyl-2-phenyl-oxazole-4-carbonyl)-amino]-propionic acid] | 2180 nM |
| Cc1oc(-c2ccccc2F)nc1C(=O)N[C@@H](CC(=O)O)c1ccc(C(F)(F)F)cc1 [Example 93, (S)-3-{[2-(2-Fluoro-phenyl)-5-methyl-oxazole-4-carbonyl]-amino}-3-(4-trifluoromethyl-phenyl)-propionic acid] | 944 nM |
| Cc1ccccc1[C@H](CC(=O)O)NC(=O)c1noc(-c2ccccc2F)n1 [Example 15, (S)-3-{[5-(2-Fluoro-phenyl)-[1,2,4]oxadiazole-3-carbonyl]-amino}-3-o-tolyl-propionic acid] | 4920 nM |
| O=C(O)C[C@H](NC(=O)CCc1nc(-c2ccccc2F)no1)c1cccc(Cl)c1Cl [Example 112, (S)-3-(2,3-Dichloro-phenyl)-3-{3-[3-(2-fluoro-phenyl)-[1,2,4]oxadiazol-5-yl]-propionylamino}-propionic acid] | > 10000 nM |
| O=C(O)C[C@H](NC(=O)c1noc(-c2ccccc2F)n1)c1ccccc1F [Example 17, (S)-3-(2-Fluoro-phenyl)-3-{[5-(2-fluoro-phenyl)-[1,2,4]oxadiazole-3-carbonyl]-amino}-propionic acid] | > 10000 nM |
| O=C(O)C[C@H](NC(=O)c1nc(-c2ccccc2)n(-c2ccccc2)n1)c1ccc(F)cc1 [Example 91, (S)-3-[(1,5-Diphenyl-1H-[1,2,4]triazole-3-carbonyl)-amino]-3-(4-fluoro-phenyl)-propionic acid] | 517 nM |
| COc1ccc([C@H](CC(=O)O)NC(=O)CCc2nc(-c3ccccc3F)no2)cc1 [Example 73, (S)-3-{3-[3-(2-Fluoro-phenyl)-[1,2,4]oxadiazol-5-yl]-propionylamino}-3-(4-methoxy-phenyl)-propionic acid] | > 10000 nM |
| Cc1ccc([C@H](CC(=O)O)NC(=O)CCc2nc(-c3ccccc3F)no2)cc1 [Example 52, (S)-3-{3-[3-(2-Fluoro-phenyl)-[1,2,4]oxadiazol-5-yl]-propionylamino}-3-p-tolyl-propionic acid] | > 10000 nM |
| CCc1nc(C(=O)N[C@@H](CC(=O)O)c2ccccc2)nn1-c1ccccc1Cl [Example 56, (S)-3-{[1-(2-Chloro-phenyl)-5-ethyl-1H-[1,2,4]triazole-3-carbonyl]-amino}-3-phenyl-propionic acid] | 1680 nM |
| O=C(O)C[C@H](NC(=O)CCc1nc(-c2ccccc2F)no1)c1ccccc1 [Example 31, (S)-3-{3-[3-(2-Fluoro-phenyl)-[1,2,4]oxadiazol-5-yl]-propionylamino}-3-phenyl-propionic acid] | > 10000 nM |
| O=C(O)C[C@H](NC(=O)c1nc(-c2ccccc2)n(-c2ccccc2)n1)c1cccc(Cl)c1Cl [Example 124, (S)-3-(2,3-Dichloro-phenyl)-3-[(1,5-diphenyl-1H-[1,2,4]triazole-3-carbonyl)-amino]-propionic acid] | 50.9 nM |
| COc1cccc([C@H](CC(=O)O)NC(=O)c2nc(-c3ccccc3)n(-c3ccccc3)n2)c1 [Example 102, (S)-3-[(1,5-Diphenyl-1H-[1,2,4]triazole-3-carbonyl)-amino]-3-(3-methoxy-phenyl)-propionic acid] | 440 nM |
| Cc1ccccc1[C@H](CC(=O)O)NC(=O)c1nn(C)cc1NS(=O)(=O)CC1CCCCC1 [Example 119, (S)-3-[(4-Cyclohexylmethanesulfonylamino-1-methyl-1H-pyrazole-3-carbonyl)-amino]-3-o-tolyl-propionic acid] | > 10000 nM |
| CC(C)c1oc(-c2ccccc2)nc1C(=O)N[C@@H](CC(=O)O)c1ccccc1 [Example 22, (S)-3-[(5-Isopropyl-2-phenyl-oxazole-4-carbonyl)-amino]-3-phenyl-propionic acid] | 1040 nM |
| Cc1oc(-c2ccccc2F)nc1C(=O)N[C@@H](CC(=O)O)c1cccc(C(F)(F)F)c1 [Example 92, (S)-3-{[2-(2-Fluoro-phenyl)-5-methyl-oxazole-4-carbonyl]-amino}-3-(3-trifluoromethyl-phenyl)-propionic acid] | 1140 nM |
| CCc1nc(C(=O)N[C@@H](CC(=O)O)c2ccc(C)cc2)nn1-c1ccccc1Cl [Example 71, (S)-3-{[1-(2-Chloro-phenyl)-5-ethyl-1H-[1,2,4]triazole-3-carbonyl]-amino}-3-p-tolyl-propionic acid] | 492 nM |
| C[C@@](CC(=O)O)(NC(=O)c1noc(-c2ccccc2F)n1)c1ccccc1 [Example 14, (S)-3-{[5-(2-Fluoro-phenyl)-[1,2,4]oxadiazole-3-carbonyl]-amino}-3-phenyl-butyric acid] | 17400 nM |
| CCCC1CCCCN1C(=O)c1cc(C(=O)N[C@@H](CC(=O)O)c2cccc(C)c2)nn1CC (stereo partly drawn) [Example 116, (S)-3-{[1-Ethyl-5-(2-propyl-piperidine-1-carbonyl)-1H-pyrazole-3-carbonyl]-amino}-3-m-tolyl-propionic acid] | 4560 nM |
| C[C@@](CC(=O)O)(NC(=O)CCc1nc(-c2ccccc2F)no1)c1ccccc1 [Example 51, (S)-3-{3-[3-(2-Fluoro-phenyl)-[1,2,4]oxadiazol-5-yl]-propionylamino}-3-phenyl-butyric acid] | > 10000 nM |
| CCCS(=O)(=O)Nc1cn(C)nc1C(=O)N[C@@H](CC(=O)O)c1ccccc1C [Example 64, (S)-3-{[1-Methyl-4-(propane-1-sulfonylamino)-1H-pyrazole-3-carbonyl]-amino}-3-o-tolyl-propionic acid] | > 10000 nM |
| O=C(O)C[C@H](NC(=O)CCc1nc(-c2ccccc2F)no1)c1ccc(F)cc1 [Example 58, (S)-3-(4-Fluoro-phenyl)-3-{3-[3-(2-fluoro-phenyl)-[1,2,4]oxadiazol-5-yl]-propionylamino}-propionic acid] | > 10000 nM |
| O=C(O)C[C@H](NC(=O)c1nc(-c2ccccc2)oc1C(F)(F)F)c1cccc(Cl)c1 [Example 96, (S)-3-(3-Chloro-phenyl)-3-[(2-phenyl-5-trifluoromethyl-oxazole-4-carbonyl)-amino]-propionic acid] | 10300 nM |
| Cc1oc(-c2ccccc2F)nc1C(=O)N[C@@H](CC(=O)O)c1cccc(F)c1 [Example 36, (S)-3-(3-Fluoro-phenyl)-3-{[2-(2-fluoro-phenyl)-5-methyl-oxazole-4-carbonyl]-amino}-propionic acid] | 198 nM |
| Cc1cccc([C@H](CC(=O)O)NC(=O)c2noc(-c3cccc(F)c3F)n2)c1 [Example 39, (S)-3-{[5-(2,3-Difluoro-phenyl)-[1,2,4]oxadiazole-3-carbonyl]-amino}-3-m-tolyl-propionic acid] | 9370 nM |
| Cc1ccc([C@H](CC(=O)O)NC(=O)c2nc(C(C)C)n(-c3ccccc3Cl)n2)cc1 [Example 85, (S)-3-{[1-(2-Chloro-phenyl)-5-isopropyl-1H-[1,2,4]triazole-3-carbonyl]-amino}-3-p-tolyl-propionic acid] | 280 nM |
